In patent US12336981B2, “Compounds and compositions for the inhibition of NAMPT” (Valo Health, Inc., priority 2010, dated 2025):
pIC50: −log10 of the molar value. Like-named read-outs stand apart in the source and are kept apart here.

Tests used:
[1] = system: A2780 cells; assay: In-vitro cell proliferation assay (SRB), A2780 cells; type: cell-based; conditions: Homo sapiens, A2780, 72 h, A2780 cells, 72 hours, read-out: A2780 IC50
In short: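 Viable cells measured by SRB staining after 6% TCA fixation, absorbance 570 nm. Media-only background subtracted; % inhibition derived at two compound concentrations.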

[2] = molecular target: T1, NAMPT (Homo sapiens, UniProt P43490); assay: Biochemical inhibition assay: NAMPT enzymatic reaction, NMN quantified by mass spectrometry; conditions: read-out: Biochem IC50
T1 construct: His tag; host or cells: E. coli
T1 sequence (P43490 whole entry): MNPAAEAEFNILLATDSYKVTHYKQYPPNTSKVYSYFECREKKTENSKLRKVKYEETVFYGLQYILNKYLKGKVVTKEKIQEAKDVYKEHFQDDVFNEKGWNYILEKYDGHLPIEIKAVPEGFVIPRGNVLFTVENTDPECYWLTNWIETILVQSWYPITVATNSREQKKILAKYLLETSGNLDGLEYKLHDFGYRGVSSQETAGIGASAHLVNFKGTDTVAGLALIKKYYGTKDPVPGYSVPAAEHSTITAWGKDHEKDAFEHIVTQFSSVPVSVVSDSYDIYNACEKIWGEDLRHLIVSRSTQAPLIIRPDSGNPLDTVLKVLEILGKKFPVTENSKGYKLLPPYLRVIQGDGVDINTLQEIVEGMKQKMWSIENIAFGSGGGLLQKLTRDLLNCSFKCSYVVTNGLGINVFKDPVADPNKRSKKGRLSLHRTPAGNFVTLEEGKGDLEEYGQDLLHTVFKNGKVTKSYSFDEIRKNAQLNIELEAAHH
In short: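 Inhibition of E. coli-expressed His-tagged human NAMPT, measured as NMN formation by mass spectrometry after a 30 min room-temperature reaction containing 1 μM NAM, 100 μM PRPP and 2.5 mM ATP.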

Row | Compound | pIC50 ([1]; SRB) | pIC50 ([2]; NAMPT enzymatic assay) | pIC50 ([2]; NAMPT enzymatic reaction) | pIC50 ([1]; SRB assay)
1 | O=C(NCc1ccc(S(=O)(=O)c2ccc(C(F)(F)F)c(F)c2)cc1)c1cc2cnccc2[nH]1 [N-[(4-{[3-fluoro-4-(trifluoromethyl)benzene]sulfonyl}phenyl)methyl]-1H-pyrrolo[3,2-c]pyridine-2-carboxamide] | 7.89 | 7.99 | – | –
2 | O=C(NCc1ccc(S(=O)(=O)c2ccc(C(F)(F)F)c(Cl)c2)cc1)c1cnc2nccn2c1 | 8.74 | 8.55 | – | –
3 | Cc1ccc(S(=O)(=O)c2ccc(CNC(=O)c3cc4cnccc4[nH]3)cc2)cc1Cl | 8.60 | – | 8.08 | –
4 | CCOCc1ccccc1S(=O)(=O)c1ccc(CNC(=O)c2cc3cnccc3[nH]2)cc1 | 8.17 | 7.73 | – | –
5 | N#Cc1cccc(S(=O)(=O)c2ccc(CNC(=O)c3cnc4nccn4c3)cc2)c1 | 7.72 | – | 8.23 | –
6 | COc1ccc(S(=O)(=O)c2ccc(CNC(=O)c3cnc4[nH]ncc4c3)cc2)c(Cl)c1 [N-({4-[(2-chloro-4-methoxybenzene)sulfonyl]phenyl}methyl)-1H-pyrazolo[3,4-b]pyridine-5-carboxamide] | 7.06 | – | 7.29 | –
7 | O=C(NCc1ccc(S(=O)(=O)c2ccccc2Cl)cc1)c1cc2cnccc2[nH]1 [N-({4-[(2-chlorobenzene)sulfonyl]phenyl}methyl)-1H-pyrrolo[3,2-c]pyridine-2-carboxamide] | – | – | 8.22 | 6.93
8 | COCc1cccc(S(=O)(=O)c2ccc(CNC(=O)c3ccc4nccn4c3)cc2)c1 | 8.17 | 8.17 | – | –
9 | O=C(NCc1ccc(S(=O)(=O)c2cccc(OC(F)(F)F)c2)cc1)c1cnc2nccn2c1 | 8.57 | 8.60 | – | –
10 | COc1ccc(S(=O)(=O)c2ccc(CNC(=O)c3cnc4nccn4c3)cc2)cc1OC | 8.14 | – | 8.54 | –
11 | O=C(NCc1ccc(S(=O)(=O)c2ccccc2C(F)(F)F)cc1)c1cc2ccncc2o1 | 7.23 | 7.71 | – | –
12 | N#Cc1ccc(S(=O)(=O)c2ccc(CNC(=O)c3cnc4[nH]ncc4c3)cc2)cc1 [N-({4-[(4-cyanobenzene)sulfonyl]phenyl}methyl)-1H-pyrazolo[3,4-b]pyridine-5-carboxamide] | 7.68 | – | 7.55 | –
13 | O=C(NCc1ccc(S(=O)(=O)c2cccc(-n3cccn3)c2)cc1)c1cc2cnccc2[nH]1 [N-[(4-{[3-(1H-pyrazol-1-yl)benzene]sulfonyl}phenyl)methyl]-1H-pyrrolo[3,2-c]pyridine-2-carboxamide] | 8.13 | 8.01 | – | –
14 | O=C(NCc1ccc(S(=O)(=O)c2ccc(C(F)(F)F)cc2C(F)(F)F)cc1)c1cc2cnccc2[nH]1 | 7.85 | 7.40 | – | –
15 | COc1ccc(C#N)cc1S(=O)(=O)c1ccc(CNC(=O)c2ccc3nccn3c2)cc1 | 7.92 | – | 7.84 | –
16 | CCOc1cc(F)ccc1S(=O)(=O)c1ccc(CNC(=O)c2ccc3nccn3c2)cc1 | 8.82 | – | 7.50 | –
17 | CC(C)c1cccc(S(=O)(=O)c2ccc(CNC(=O)c3cc4cnccc4[nH]3)cc2)c1 [N-[(4-{[3-(propan-2-yl)benzene]sulfonyl}phenyl)methyl]-1H-pyrrolo[3,2-c]pyridine-2-carboxamide] | – | – | 8.22 | 8.40
18 | COc1cccc(S(=O)(=O)c2ccc(CNC(=O)c3cc4ccncc4s3)cc2)c1OC [N-({4-[(2,3-dimethoxybenzene)sulfonyl]phenyl}methyl)thieno[2,3-c]pyridine-2-carboxamide] | 8.47 | 8.05 | – | –
19 | Cn1cc(S(=O)(=O)c2ccc(CNC(=O)c3cnc4nccn4c3)cc2)cn1 [N-{[4-(1-methyl-1H-pyrazole-4-sulfonyl)phenyl]methyl}imidazo[1,2-a]pyrimidine-6-carboxamide] | 6.00 to 7.00 | 8.09 | – | –
20 | O=C(NCc1ccc(S(=O)(=O)c2ccc(Cl)c(F)c2)cc1)c1cc2ccncc2o1 | 8.19 | – | 7.73 | –
21 | CCCCOc1ccc(Cl)cc1S(=O)(=O)c1ccc(CNC(=O)c2cc3ccncc3o2)cc1 | 7.18 | – | 7.61 | –
22 | O=C(NCc1ccc(S(=O)(=O)c2ccccc2)cc1)c1[nH]c2ccncc2c1Br [N-{[4-(benzenesulfonyl)phenyl]methyl}-3-bromo-1H-pyrrolo[3,2-c]pyridine-2-carboxamide] | – | – | 6.51 | 5.13
23 | O=C(NCc1ccc(S(=O)(=O)c2ccc(N3CCOCC3)cc2)cc1)c1cc2ccncc2o1 | 8.60 | 8.34 | – | –
24 | Cn1cc2ccc(S(=O)(=O)c3ccc(CNC(=O)c4ccc5nccn5c4)cc3)cc2n1 [N-{[4-(2-methyl-2H-indazole-6-sulfonyl)phenyl]methyl}imidazo[1,2-a]pyridine-6-carboxamide] | 8.77 | 8.72 | – | –

Row | Compound | pIC50 ([1]; SRB) | pIC50 ([2]; NAMPT enzymatic assay) | pIC50 ([2]; NAMPT enzymatic reaction) | pIC50 ([1]; SRB assay)
25 | Cc1ccccc1S(=O)(=O)c1ccc(CNC(=O)c2cc3ccncc3o2)cc1 [N-({4-[(2-methylbenzene)sulfonyl]phenyl}methyl)furo[2,3-c]pyridine-2-carboxamide] | 7.36 | – | 7.82 | –
26 | COc1ccc(Cl)c(S(=O)(=O)c2ccc(CNC(=O)c3cc4ccncc4s3)cc2)c1 | 8.28 | – | 8.31 | –
27 | O=C(NCc1ccc(S(=O)(=O)c2cccc(-n3cccn3)c2)cc1)c1ccc2nccn2c1 | 8.21 | 8.32 | – | –
28 | O=C(NCc1ccc(S(=O)(=O)c2cccc(Oc3ccc(F)cc3)c2)cc1)c1ccc2nccn2c1 | 7.47 | 7.82 | – | –
29 | O=C(NCc1ccc(S(=O)(=O)c2cccc3ccccc23)cc1)c1cnc2[nH]ncc2c1 [N-{[4-(naphthalene-1-sulfonyl)phenyl]methyl}-1H-pyrazolo[3,4-b]pyridine-5-carboxamide] | 8.43 | 8.04 | – | –
30 | COc1ccccc1S(=O)(=O)c1ccc(CNC(=O)c2cc3ccncc3s2)cc1 [N-({4-[(2-methoxybenzene)sulfonyl]phenyl}methyl)thieno[2,3-c]pyridine-2-carboxamide] | – | – | 8.15 | 8.28
31 | COc1ccc(F)cc1NS(=O)(=O)c1ccc(CNC(=O)c2cc3cnccc3[nH]2)cc1 [N-({4-[(5-fluoro-2-methoxyphenyl)sulfamoyl]phenyl}methyl)-1H-pyrrolo[3,2-c]pyridine-2-carboxamide] | – | – | 6.63 | < 4.52
32 | COc1ccc(S(=O)(=O)c2ccc(CNC(=O)c3cnc4[nH]ncc4c3)cc2)cc1F [N-({4-[(3-fluoro-4-methoxybenzene)sulfonyl]phenyl}methyl)-1H-pyrazolo[3,4-b]pyridine-5-carboxamide] | 8.22 | – | 7.37 | –
33 | Cc1cccc(S(=O)(=O)c2ccc(CNC(=O)c3ccc4nccn4c3)cc2)c1 [N-({4-[(3-methylbenzene)sulfonyl]phenyl}methyl)imidazo[1,2-a]pyridine-6-carboxamide] | 8.19 | – | 8.09 | –
34 | O=C(NCc1ccc(S(=O)(=O)c2ccc(OC(F)(F)F)c(F)c2)cc1)c1ccc2nccn2c1 | 8.20 | 8.08 | – | –
35 | Cc1nc(S(=O)(=O)c2ccc(CNC(=O)c3cnc4[nH]ncc4c3)cc2)cs1 [N-{[4-(2-methyl-1,3-thiazole-4-sulfonyl)phenyl]methyl}-1H-pyrazolo[3,4-b]pyridine-5-carboxamide] | 7.68 | 7.08 | – | –
36 | O=C(NCc1ccc(S(=O)(=O)c2cccc(OCC(F)(F)F)c2)cc1)c1cnc2nccn2c1 | 7.94 | 8.26 | – | –
37 | O=C(NCc1ccc(S(=O)(=O)Nc2cccc3c(=O)occc23)cc1)c1cc2cnccc2[nH]1 [N-({4-[(1-oxo-1H-isochromen-5-yl)sulfamoyl]phenyl}methyl)-1H-pyrrolo[3,2-c]pyridine-2-carboxamide] | – | – | 8.10 | 5.64
38 | O=C(NCc1ccc(S(=O)(=O)N2CCCCC2)cc1)c1cc2ccncc2[nH]1 [N-{[4-(piperidine-1-sulfonyl)phenyl]methyl}-1H-pyrrolo[2,3-c]pyridine-2-carboxamide] | – | – | 8.40 | 7.27
39 | O=C(NCc1ccc(S(=O)(=O)c2ccc(-n3cccn3)cc2)cc1)c1cc2ccncc2o1 | 8.14 | 8.39 | – | –
40 | O=C(NCc1ccc(S(=O)(=O)c2cnn(-c3cccc(Cl)c3)c2)cc1)c1cc2ccncc2o1 [N-({4-[1-(3-chlorophenyl)-1H-pyrazole-4-sulfonyl]phenyl}methyl)furo[2,3-c]pyridine-2-carboxamide] | 7.85 | 7.94 | – | –
41 | COc1cccc(S(=O)(=O)c2ccc(CNC(=O)c3cnc4[nH]ncc4c3)cc2)c1F | 7.25 | – | 8.07 | –
42 | O=C(NCc1ccc(S(=O)(=O)c2ccc(F)cc2C(F)(F)F)cc1)c1cc2cnccc2[nH]1 | 7.85 | 7.57 | – | –
43 | O=C(NCc1ccc(S(=O)(=O)c2cncc3ccccc23)cc1)c1cc2ccncc2o1 [N-{[4-(isoquinoline-4-sulfonyl)phenyl]methyl}furo[2,3-c]pyridine-2-carboxamide] | 8.52 | 7.72 | – | –
44 | O=C(NCc1ccc(S(=O)(=O)c2ccc3c(c2)OCO3)cc1)c1cnc2[nH]ncc2c1 [N-{[4-(2H-1,3-benzodioxole-5-sulfonyl)phenyl]methyl}-1H-pyrazolo[3,4-b]pyridine-5-carboxamide] | 8.13 | 7.32 | – | –
45 | O=C(NCc1ccc(S(=O)(=O)c2cc(F)cc(C(F)(F)F)c2)cc1)c1cc2ccncc2o1 | 8.30 | 8.13 | – | –
46 | COc1cc(Cl)cc(S(=O)(=O)c2ccc(CNC(=O)c3cc4ccncc4s3)cc2)c1 | 8.96 | – | 8.39 | –
47 | Cc1ccc(S(=O)(=O)c2ccc(CNC(=O)c3cnc4[nH]ncc4c3)cc2)cn1 [N-{[4-(6-methylpyridine-3-sulfonyl)phenyl]methyl}-1H-pyrazolo[3,4-b]pyridine-5-carboxamide] | 7.67 | 7.62 | – | –
48 | COCc1cccc(S(=O)(=O)c2ccc(CNC(=O)c3cc4ccncc4s3)cc2)c1 | 8.17 | 8.59 | – | –
